pEC50, pIC50: −log10 of the molar value.
Columns and labels:
[1] = target: hBPGM (Homo sapiens (Human), UniProt P07738); assay: BPGM Synthase Assay; type: biochemical; conditions: Table 6 additional results; read-out: huBPGM: synthase Enzyme IC50
Description: Example B1. BPGM Synthase Assay
The following materials were used in this assay: deionized water; Bisphosphoglycerate mutase (BPGM; Standard Buffer: 50 mM Tris, 0.01% Tween 20, pH 7.4); BPGM Reaction Buffer (50 mM Tris, 0.01% Tween 20, 3.23 mM KH2PO4, pH 7.4); dithiothreitol (DTT; Stock solution: 100 mM in Standard Buffer); 384-Well Black Assay Plate (Corning, P/N 3575); DMSO; BPGM Stock Solution (500 nM in BPGM Standard Buffer); Glyceraldehyde 3-phosphate dehydrogenase (GAPDH; Stock Solution: 40 U/mL in 20 mM Tris-HCL Buffer with 20% Glycerol, 1 mM EDTA, 1 mM DTT); Glyceraldehyde 3-phosphate (GAP; Stock Solution: 20 mM in BPGM Standard Buffer); 3-PG Stock Solution (500 μM in BPGM Standard Buffer); Nicotinamide adenine dinucleotide (NAD; Stock Solution: 50 mM in BPGM Standard Buffer); Koningic Acid (1 mM Stock in DMSO); Resazurin Stock Solution (10 mM in DMSO); Diaphorase Stock Solution (40 U/mL in BPGM Standard Buffer); DTT Reaction Buffer (1 mM DTT in BPGM Reaction Buffer); Enzyme Solution (5 nM BPGM, 0.4 U/mL GAPDH in DTT Reaction Buffer); GAPDH Solution (0.4 U/mL GAPDH in DTT Reaction Buffer); Substrate Solution (2 mM NAD, 20 μM 3PG, 800 μM GAP in DTT Reaction Buffer); and Resazurin Solution (5 U/mL Diaphorase, 500 μM Resazurin in BPGM Standard Buffer).
To the assay plate was added Enzyme Solution (20 uL) to columns 2-22 and 24 of the assay plate. To columns 1 and 23 was added GAPDH Solution (20 uL). A separate compound plate was prepared at the desired concentrations and all wells were normalized with 5% DMSO. The compound plate was incubated for 30 minutes at RT. Next, the substrate solution (20 μL) was dispensed to all reaction wells and the plate was incubated for 60 minutes at RT. Koningic acid (1 μL) was added and the plate was incubated for 10 minutes at RT. During this time period, the NADH fluorescence was read at ex: 360/em: 460. Next, Resazurin Solution (10 μL) was added to all reaction wells and the plate was incubated for 30 minutes at RT. The resorufin fluorescence was then read at ex:544/em:590.

[2] = target: human Bisphosphoglycerate mutase (hBPGM) (Homo sapiens (Human), UniProt P07738); assay: BPGM Phosphatase Assay; type: biochemical; conditions: Table 6 additional results; read-out: huBPGM: phosphatase Enzyme EC50
Description: Solutions of the test compounds were then added to the plate and the DMSO content was normalized across the plate. The plate was incubated at RT for 15 min. Next, the substrate 2,3-BPG (5 μL) was added to all the wells, and the plate was sealed and incubated for 24 hr at RT. After incubation, BIOMOL green dye (40 μL) was added to all the wells, the plate was shaken to mix, and the plate was incubated at RT for 20-30 min.

Chain of human Bisphosphoglycerate mutase (hBPGM) (P07738 whole entry): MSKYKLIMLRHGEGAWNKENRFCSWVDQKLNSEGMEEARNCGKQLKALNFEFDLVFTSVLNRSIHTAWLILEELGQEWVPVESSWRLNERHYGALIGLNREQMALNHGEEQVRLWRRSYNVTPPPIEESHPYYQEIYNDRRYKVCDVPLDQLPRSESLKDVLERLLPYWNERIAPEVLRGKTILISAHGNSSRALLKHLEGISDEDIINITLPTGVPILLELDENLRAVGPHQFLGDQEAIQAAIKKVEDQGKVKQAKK
Chain of hBPGM (P07738 whole entry, looked up): as the sequence (P07738 whole entry) above

Structure (SMILES) | pIC50 [1] | pEC50 [2]
Cc1nc(CNC(=O)c2ncccn2)sc1-c1csc(-c2cc(O)c(C(=O)O)cc2F)n1 [Example 192] | 7.31 | 6.92
Cc1nc(CNC(=O)C(C)(C)C)sc1-c1cccc(-c2ccc(C(=O)O)c(O)c2)c1 [Example 81] | 6.35 | 5.96
COC(=O)NCc1nc(C)c(-c2csc(-c3cc(O)c(C(=O)O)cc3Cl)n2)s1 [Example 211] | 7.00 | 6.72
Cc1nc(CNc2ncccn2)sc1-c1cccc(-c2ccc(C(=O)O)cc2)c1 [Example 80] | 6.66 | 5.77
Cc1nc(CNC2CCCOC2)sc1-c1cccc(-c2ccc(C(=O)O)cc2)c1 (stereo not drawn) [Example 52] | 4.80 | < 4.60
Cc1nc(Cc2ccn(C)n2)sc1-c1cccc(-c2ccc(C(=O)O)c(O)c2)c1 [Example 253] | 6.72 | 6.82
Cc1nc(Cn2c(C)cccc2=O)sc1-c1cccc(-c2ccc(C(=O)O)c(O)c2)c1 [Example 267] | 6.28 | 6.46
Cc1nc(COc2ncccn2)sc1-c1cccc(-c2ccc(C(=O)O)s2)n1 [Example 88] | 6.00 | 4.92
Cc1nc(Cc2cccnc2)sc1-c1cccc(-c2cc(O)c(C(=O)O)cc2F)c1 [Example 99] | 6.40 | 6.55
Cc1nc(CNC(=O)C2CC2)sc1-c1cccc(-c2cc(O)c(C(=O)O)cc2F)n1 [Example 236] | 6.89 | 6.44
Cc1nc(COc2ncccn2)sc1-c1cccc(-c2cc(O)c(C(=O)O)cc2F)n1 [Example 129] | 7.40 | 7.40
Cc1nc(C)c(-c2cccc(-c3cc(O)c(C(=O)O)cc3F)n2)s1 [Example 259] | 6.24 | < 4.60
Cc1nc(CNCC(C)(C)C)sc1-c1csc(-c2cc(O)c(C(=O)O)cc2F)n1 [Example 147] | 6.21 | 7.30
Cc1nc(COc2cccnc2)sc1-c1cccc(-c2ccc(C(=O)O)c(O)c2)c1 [Example 102] | 6.05 | 6.44
COC(=O)NCc1nc(C)c(-c2csc(-c3cc(O)c(C(=O)O)c(F)c3F)n2)s1 [Example 135] | 7.40 | 7.15
COC(=O)NCc1nc(C)c(-c2csc(-c3ccc(C(=O)O)c(O)c3)c2)s1 [Example 166] | 6.60 | 7.15
Cc1nc(COc2ccccn2)sc1-c1cccc(-c2ccc(C(=O)O)c(O)c2)n1 [Example 128] | 6.72 | 7.10
Cc1nc(COc2ncccn2)sc1-c1cccc(-c2ccc(C(=O)O)cc2F)n1 [Example 83] | 6.44 | 5.85
Cc1nc(CNc2ccccn2)sc1-c1cccc(-c2ccc(C(=O)O)c(O)c2)c1 [Example 246] | 6.09 | 6.96
COC(=O)NCc1nc(C)c(-c2csc(-c3cc(O)c(CC(=O)O)cc3F)n2)s1 [Example 116] | 5.16 | < 4.60
Cc1nc(Cc2ccn(C)n2)sc1-c1csc(-c2cc(O)c(C(=O)O)cc2F)n1 [Example 160] | 7.19 | 6.89
Cc1nc(C)c(-c2cc(-c3cc(O)c(C(=O)O)cc3F)sn2)s1 [Example 183] | 6.18 | 6.55
Cc1nc(CNC(=O)c2cccnc2)sc1-c1csc(-c2cc(O)c(C(=O)O)cc2F)n1 [Example 199] | 7.17 | 6.49
CCOC(=O)NCc1nc(C)c(-c2csc(-c3cc(O)c(C(=O)O)cc3F)n2)s1 [Example 227] | 7.12 | 7.05
Cc1nc(Cn2cccn2)sc1-c1cccc(-c2cc(O)c(C(=O)O)cc2F)n1 [Example 223] | 6.82 | 6.72
Cc1nc(CNC(=O)C(C)CN(C)C)sc1-c1csc(-c2cc(O)c(C(=O)O)cc2F)n1 (stereo not drawn) [Example 117] | 6.77 | 5.06
Cc1nc(Cc2cccnc2)sc1-c1cccc(-c2ccc(C(=O)O)c(O)c2)n1 [Example 237] | 6.85 | 6.77

Structure (SMILES) | pIC50 [1] | pEC50 [2]
Cc1nc(C(C)NC(=O)c2cccnn2)sc1-c1csc(-c2cc(O)c(C(=O)O)cc2F)n1 (stereo not drawn) [Example 151] | 7.19 | 7.15
Cc1nc(Cc2ccn(C)n2)sc1-c1csc(-c2ccc(C(=O)O)c(O)c2)c1 [Example 216] | 6.72 | 6.70
COC(=O)NCc1nc(C)c(-c2csc(-c3ccc(C(=O)O)cc3)n2)s1 [Example 239] | 6.14 | < 4.60
Cc1nc(CNC(=O)c2ccon2)sc1-c1csc(-c2cc(O)c(C(=O)O)cc2F)n1 [Example 152] | 7.17 | 7.40
Cc1nc(COc2ncccn2)sc1-c1cccc(-c2ccc(C(=O)O)c(O)c2)c1 [Example 142] | 6.72 | 6.89
Cc1nc(CNC(=O)c2cccc(C#N)n2)sc1-c1csc(-c2cc(O)c(C(=O)O)cc2F)n1 [Example 180] | 7.55 | 7.70
CC(=O)Nc1cccc(OCc2nc(C)c(-c3csc(-c4cc(O)c(C(=O)O)cc4F)n3)s2)n1 [Example 145] | 6.60 | 7.30
Cc1nc(COc2cccc(N)n2)sc1-c1csc(-c2cc(O)c(C(=O)O)cc2F)n1 [Example 204] | 6.57 | 6.60
Cc1nc(Cc2ccncc2)sc1-c1cccc(-c2ccc(C(=O)O)c(O)c2)c1 [Example 281] | 6.14 | 6.92
Cc1nc(COC(=O)N2CCN(C)CC2)sc1-c1csc(-c2cc(O)c(C(=O)O)cc2F)n1 [Example 118] | 6.74 | 6.89
Cc1nc(N)sc1-c1csc(-c2cc(O)c(C(=O)O)cc2F)n1 [Example 210] | 6.03 | 6.08
Cc1cccnc1OCc1nc(C)c(-c2cccc(-c3ccc(C(=O)O)c(O)c3)c2)s1 [Example 86] | 5.82 | 6.70
COC(=O)NCc1nc(C)c(-c2csc(-c3ccc(C(=O)NS(=O)(=O)c4ccc(OCC(=O)O)cc4)cc3)n2)s1 [Example 66] | 7.21 | 6.96
Cc1nc(CNC(=O)C2CC2)sc1-c1ccc(-c2ccc(C(=O)O)c(O)c2)s1 [Example 245] | 6.16 | 6.09
COC(=O)NCc1nc(C)c(-c2nsc(-c3ccc(C(=O)O)c(O)c3)n2)s1 [Example 193] | 6.77 | 6.44
Cc1nc(COc2ccn(C)n2)sc1-c1csc(-c2cc(O)c(C(=O)O)cc2F)n1 [Example 219] | 6.92 | 7.19
Cc1nc(NCC(=O)N(C)C)sc1-c1csc(-c2cc(O)c(C(=O)O)cc2F)n1 [Example 178] | 6.70 | 5.51
Cc1nc(Cn2cccn2)sc1-c1cccc(-c2ccc(C(=O)O)c(O)c2)c1 [Example 286] | 6.09 | 5.51
Cc1nc(CNC(=O)C2CC2)sc1-c1csc(-c2cc(O)c(C(=O)O)cc2F)c1 [Example 233] | 7.11 | 6.96
Cc1nc(CNCC(=O)N(C)C)sc1-c1csc(-c2cc(O)c(C(=O)O)cc2F)n1 [Example 169] | 6.32 | 6.96
Cc1nc(COc2ccc(Cl)cn2)sc1-c1cccc(-c2ccc(C(=O)O)c(O)c2)c1 [Example 74] | 5.74 | 5.96
Cc1nc(Cc2ccccc2)sc1-c1cccc(-c2cc(O)c(C(=O)O)cc2F)n1 [Example 162] | 6.85 | 7.22
Cc1cnc(OCc2nc(C)c(-c3csc(-c4cc(O)c(C(=O)O)cc4F)n3)s2)nc1 [Example 132] | 7.35 | 7.30
Cc1nc(Cc2cccnc2)sc1-c1csc(-c2cc(O)c(C(=O)O)cc2F)c1 [Example 143] | 6.70 | 7.10
Cc1nc(Cn2cccnc2=O)sc1-c1csc(-c2cc(O)c(C(=O)O)cc2F)n1 [Example 181] | 6.68 | 7.10
Cc1ccc(Cc2nc(C)c(-c3csc(-c4cc(O)c(C(=O)O)cc4F)c3)s2)cn1 [Example 98] | 6.77 | 7.00
Cc1nc(COc2ncccn2)sc1-c1cccc(-c2ccc(C(=O)O)c(F)c2)n1 [Example 96] | 5.89 | 8.00

— patent publication US20230348450A1, “CARBOXYLIC ACID-CONTAINING COMPOUNDS AS MODULATORS OF BIS-PHOSPHOGLYCERATE MUTASE FOR THE TREATMENT OF SICKLE CELL DISEASE” (Genzyme Corporation, priority 2020, published 2023)
